Data taken from ChEMBL document CHEMBL2331154 (J Med Chem, 2013).
The source made the active and inactive calls. The calls are words filed in the database; no cut-off is given here.

Tests used:
[1] = target: T1, Heat shock protein HSP 90-alpha (Homo sapiens, UniProt P07900); test: Binding affinity to recombinant Hsp90 alpha (unknown origin) by surface plasmon resonance
[2] = target: T1, Heat shock protein HSP 90-alpha; test: Inhibition of Hsp90 alpha (unknown origin) ATPase activity after 60 mins by fluorimetry
HeLa [3] = test: Cytotoxicity against human HeLa cells assessed as cell viability up to 100 uM after 24 hrs by MTT assay; format: cell-based
[4] = target: T1, Heat shock protein HSP 90-alpha; test: Inhibition of Hsp90 alpha (unknown origin) assessed as thermal-induced citrate synthase aggregation at 0.3 uM by fluorimetry relative to control
[5] = target: T1, Heat shock protein HSP 90-alpha; test: Inhibition of Hsp90 alpha (unknown origin) assessed as thermal-induced citrate synthase aggregation at 4 fold molar excess by fluorimetry
HeLa [6] = test: Increase in Hsp70 level in human HeLa cells at 50 uM after 24 hrs by Western blot analysis; format: functional, cell-based
[7] = target: T1, Heat shock protein HSP 90-alpha; test: Inhibition of Hsp90 alpha in human HeLa cells assessed as reduction in ERK1/ERK2 level at 50 uM after 24 hrs by Western blot analysis; format: cell-based
[8] = target: T1, Heat shock protein HSP 90-alpha; test: Inhibition of Hsp90 alpha in human HeLa cells assessed as reduction in p-AKT level at 50 uM after 24 hrs by Western blot analysis; format: cell-based

| Kd ([1]; read-out: Kd) | SMILES | Kd [1] | also measured |
| --- | --- | --- | --- |
| – | CO[C@H]1C[C@@H]2[C@@H]3[C@@H](OC[C@]3(O)C[C@H]2OC(=O)c2ccc(O)cc2)O1 | Not Active | – |
| 50 nM | O=C(O[C@H]1[C@@H]2C=CO[C@@H](O[C@@H]3O[C@H](CO)[C@@H](O)[C@H](O)[C@H]3O)[C@@H]2[C@@]2(CO)O[C@@H]12)[C@H]1[C@H](c2ccc(O)cc2)[C@H](C(=O)O[C@H]2[C@@H]3C=CO[C@@H](O[C@@H]4O[C@H](CO)[C@@H](O)[C@H](O)[C@H]4O)[C@@H]3[C@@]3(CO)O[C@@H]23)[C@H]1c1ccc(O)cc1 [ARGENTEOSIDE B] | – | inhibition [2]: Dose-dependent effect |
| – | O=C(C=Cc1ccc(O)cc1)O[C@@H]1C[C@@](O)(CO)[C@H]2[C@H](O[C@@H]3O[C@H](CO)[C@@H](O)[C@H](O)[C@H]3O)OC=C[C@H]21 (mixture of isomers) | Not Active | – |
| – | O[C@@H]1C[C@@]2(O)CO[C@H]3OCC[C@@H]1[C@H]32 | Not Active | – |
| 16 nM | O=C(O[C@H]1[C@@H]2CCO[C@@H](O[C@@H]3O[C@H](CO)[C@@H](O)[C@H](O)[C@H]3O)[C@@H]2[C@@]2(CO)O[C@@H]12)c1ccc(O)cc1 | – | – |
| – | COc1cc(/C=C/C(=O)O[C@H]2[C@@H]3C=CO[C@@H](O[C@@H]4O[C@H](CO)[C@@H](O)[C@H](O)[C@H]4O)[C@@H]3[C@@]3(CO)O[C@@H]23)ccc1O | Not Active | – |
| 12 nM | O=C(O[C@H]1[C@@H]2C=CO[C@@H](O[C@@H]3O[C@H](CO)[C@@H](O)[C@H](O)[C@H]3O)[C@@H]2[C@@]2(CO)O[C@@H]12)c1ccc(O)cc1 [CATALPOSIDE] | – | inhibition [2]: Dose-dependent effect |
| 5920 nM | O=C(O[C@@H]1C[C@@]2(O)CO[C@H]3O[C@H](O)C[C@@H]1[C@H]32)c1ccc(O)cc1 [CATALPIN] | – | – |
| – | O=C(OC[C@H]1O[C@@H](O[C@@H]2C[C@@]3(O)CO[C@H]4OCC[C@@H]2[C@H]43)[C@H](O)[C@@H](O)[C@@H]1O)c1ccc(O)cc1 | Not Active | – |
| – | COc1cc(C(=O)O[C@H]2[C@@H]3C=CO[C@@H](O[C@@H]4O[C@H](CO)[C@@H](O)[C@H](O)[C@H]4O)[C@@H]3[C@@]3(CO)O[C@@H]23)ccc1O [PICROSIDE II] | Not Active | – |
| – | O=C(/C=C/c1ccc(O)cc1)O[C@H]1[C@@H]2C=CO[C@@H](O[C@@H]3O[C@H](CO)[C@@H](O)[C@H](O)[C@H]3O)[C@@H]2[C@@](O)(CO)[C@@H]1O [STEREOSPERMOSIDE] | Not Active | – |
| 348 nM | O=C(/C=C/c1ccc(O)c(O)c1)O[C@@H]1C2C=CO[C@H](O[C@@H]3O[C@H](CO)[C@@H](O)[C@H](O)[C@H]3O)C2[C@]2(CO)O[C@H]12 (stereo partly specified) [VERMINOSIDE] | – | – |
| – | COc1ccc(C=CC(=O)O[C@@H]2C[C@@](O)(CO)[C@H]3[C@H](O[C@@H]4O[C@H](CO)[C@@H](O)[C@H](O)[C@H]4O)OC=C[C@H]32)cc1 (mixture of isomers) | Not Active | – |
| – | C=C[C@H]1[C@H](O[C@@H]2O[C@H](CO)[C@@H](O)[C@H](O)[C@H]2O)OC=C2C(=O)OCC[C@H]21 [SWEROSIDE] | Not Active | – |
| 139 nM | O=C(OC[C@H]1O[C@@H](O[C@@H]2OC=C[C@@H]3[C@H]2[C@](O)(CO)C[C@H]3OC(=O)c2ccc(O)cc2)[C@H](O)[C@@H](O)[C@@H]1O)c1ccc(O)cc1 | – | – |
| – | C[C@H]1[C@H]2[C@H](O[C@@H]3O[C@H](CO)[C@@H](O)[C@H](O)[C@H]3O)OC[C@](C)(O)[C@H]2C[C@@H]1O [ADENOSMOSIDE] | Not Active | – |
| – | COc1cc(/C=C/C(=O)O[C@@H]2C[C@@](O)(CO)[C@H]3[C@H](O[C@@H]4O[C@H](CO)[C@@H](O)[C@H](O)[C@H]4O)OC=C[C@H]32)ccc1O | Not Active | – |
| 14 nM | O=C(O[C@H]1[C@@H]2C=CO[C@@H](O[C@@H]3O[C@H](CO)[C@@H](O)[C@H](O)[C@H]3O)[C@@H]2[C@@]2(CO)O[C@@H]12)[C@H]1[C@H](C(=O)O[C@H]2[C@@H]3C=CO[C@@H](O[C@@H]4O[C@H](CO)[C@@H](O)[C@H](O)[C@H]4O)[C@@H]3[C@@]3(CO)O[C@@H]23)[C@@H](c2ccc(O)cc2)[C@@H]1c1ccc(O)cc1 [ARGENTEOSIDE A] | – | Activity (HeLa [3]): Non-toxic; inhibition [4]: Active; inhibition [5]: Active; inhibition [2]: Dose-dependent effect; Activity (HeLa [6]): inactive; inhibition [7]: Active; inhibition [8]: Active |
| 31 nM | O=C(O[C@@H]1C[C@@](O)(CO)[C@H]2[C@H](O[C@@H]3O[C@H](CO)[C@@H](O)[C@H](O)[C@H]3O)OC=C[C@H]21)c1ccc(O)cc1 | – | – |
| – | COc1ccc(C=CC(=O)O[C@@H]2C[C@@](O)(CO)[C@H]3[C@H](O[C@@H]4O[C@H](CO)[C@@H](O)[C@H](O)[C@H]4O)OC=C[C@H]32)cc1O (mixture of isomers) | Not Active | – |
| – | O=C(O[C@@H]1C[C@@]2(O)CO[C@@H]3CC1C2[C@H](O[C@@H]1O[C@H](CO)[C@@H](O)[C@H](O)[C@H]1O)O3)c1ccc(O)cc1 | Not Active | – |
| 2390 nM | O[C@H]1[C@@H]2CCO[C@@H]3OC[C@@](O)([C@@H]32)[C@@H]1O [REHMAGLUTIN A] | – | – |
| – | O=C(O[C@@H]1C=C(CO)[C@@H]2[C@H](O[C@@H]3O[C@H](CO)[C@@H](O)[C@H](O)[C@H]3O)OC=C[C@@H]21)c1ccc(O)cc1 | Not Active | – |
| 26 nM | O=C(/C=C/c1ccc(O)cc1)O[C@H]1[C@@H]2C=CO[C@@H](O[C@@H]3O[C@H](CO)[C@@H](O)[C@H](O)[C@H]3O)[C@@H]2[C@@]2(CO)O[C@@H]12 [SPECIOSIDE] | – | inhibition [2]: Dose-dependent effect |
| – | C=C[C@H]1[C@H](O[C@@H]2O[C@H](CO)[C@@H](O)[C@H](O)[C@H]2O)OC=C(C(=O)OC)[C@H]1CC=O [SECOLOGANIN] | Not Active | – |

| SMILES | Kd ([1]; read-out: Kd) | Kd [1] | also measured |
| --- | --- | --- | --- |
| O=C(/C=C\c1ccc(O)cc1)O[C@@H]1C[C@@](O)(CO)[C@H]2[C@H](O[C@@H]3O[C@H](CO)[C@@H](O)[C@H](O)[C@H]3O)OC=C[C@H]21 | 73 nM | – | – |
